Assay results from DBAASP.
In brackets after ≈: the same amount, converted by molar mass. Each block holds one molecule with its values, some of them ahead of it.

Experiments:
Assay in all cases: ≥ marks a high value that may be exact or a test limit, other limits are often not marked, values filed in µg/mL are converted to µM
[1] = test system: Staphylococcus epidermidis CICC 23664
[2] = test system: Enterobacter cloacae CGMCC 1.58
[3] = test system: Enterococcus faecium CGMCC 1.2334
[4] = test system: Pseudomonas aeruginosa CGMCC 1.860
[5] = test system: Proteus mirabilis CICC 22931
[6] = test system: Klebsiella pneumoniae subsp. pneumoniae CGMCC 1.176
[7] = test system: Enterococcus faecalis CGMCC 1.595
[8] = test system: Staphylococcus epidermidis
[9] = test system: Escherichia coli AS1.349
[10] = test system: Bacillus cereus AS1.126
[11] = test system: Pseudomonas aeruginosa 0108
[12] = test system: Staphylococcus aureus AS1.72
[13] = test system: Cryptococcus neoformans L26
[14] = test system: Candida albicans 38U
[15] = test system: Trichophyton rubrum
[16] = test system: Trichophyton mentagrophytes
[17] = test system: Cryptococcus neoformans L30
[18] = test system: Candida albicans 01U
[19] = test system: Candida parapsilosis
[20] = test system: Staphylococcus aureus 68 HER 1049
[21] = test system: Escherichia coli K12 MG1655
[22] = test system: Escherichia coli ATCC 25922
[23] = test system: Pseudomonas aeruginosa ATCC 27853
[24] = test system: Staphylococcus aureus ATCC 25923
[25] = test system: Klebsiella pneumoniae ATCC 13883
[26] = test system: Listeria monocytogenes ATCC 35152
[27] = test system: Staphylococcus aureus ATCC 25023
[28] = test system: Pseudomonas syringae pv. syringae EPS 94
[29] = test system: Erwinia amylovora PMV 6076
[30] = test system: Xanthomonas campestris pv. Vesicatoria 2133-2
[31] = test system: Staphylococcus aureus ATCC 33591
[32] = test system: Listeria monocytogenes ATCC 7644
[33] = test system: Bacillus subtilis ATCC 23858
[34] = test system: Bacillus cereus ATCC 14579
[35] = test system: Xanthomonas axonopodis pv. glycines ISBF 327
[36] = test system: Staphylococcus aureus ATCC 29313
[37] = test system: Streptococcus pneumoniae BCRC 10794
[38] = test system: Staphylococcus aureus BCRC 10780

Structure (SMILES): CC(C)C[C@H](NC(=O)[C@H](CCCN=C(N)N)NC(=O)[C@H](CC(C)C)NC(=O)[C@H](CC(C)C)NC(=O)[C@H](CC(C)C)NC(=O)[C@H](CC(C)C)NC(=O)[C@H](CC(C)C)NC(=O)[C@H](CCCCN)NC(=O)[C@H](CC(C)C)NC(=O)[C@@H](N)CCCN=C(N)N)C(N)=O [RLKLLLLLRL]
- MIC [27]: 6.4 µM (≈ 7.99 µg/mL)

Structure (SMILES): CC[C@H](C)[C@H](NC(=O)[C@H](CCCCN)NC(=O)[C@H](CCCCN)NC(=O)[C@H](Cc1ccccc1)NC(=O)[C@H](CC(C)C)NC(=O)[C@H](CCCCN)NC(=O)[C@H](CCCCN)NC(=O)[C@H](C)NC(=O)[C@@H]1CCCN1C(=O)CNC(=O)[C@H](C)NC(=O)[C@H](CC(C)C)NC(=O)[C@H](Cc1ccc(O)cc1)NC(=O)[C@H](CCCCN)NC(=O)[C@H](CC(C)C)NC(=O)[C@@H](NC(=O)[C@H](CCCCN)NC(=O)[C@H](CCCCN)NC(=O)[C@H](Cc1ccccc1)NC(=O)[C@H](CC(C)C)NC(=O)[C@H](CCCCN)NC(=O)[C@H](CCCCN)NC(=O)[C@@H](N)CO)[C@@H](C)CC)C(=O)N[C@@H](CC(C)C)C(=O)N[C@@H](CCCCN)C(=O)N[C@@H](Cc1ccc(O)cc1)C(=O)N[C@@H](CC(C)C)C(=O)O [SKKLFKKILKYLAGPAKKLFKKILKYL]
- MIC [28]: 8.66 µM (≈ 27.8 µg/mL)
- MIC [29]: 14.1 µM (≈ 45.4 µg/mL)
- MIC [30]: 14.1 µM (≈ 45.4 µg/mL)

Structure (SMILES): CC[C@H](C)[C@H](NC(=O)[C@H](CC(C)C)NC(=O)[C@@H]1CCCN1C(=O)[C@H](CC(C)C)NC(=O)[C@@H](N)Cc1ccccc1)C(=O)N[C@@H](CC(C)C)C(=O)N1CCC[C@H]1C(=O)N[C@@H](CO)C(=O)N[C@H](C(=O)N[C@H](C(=O)N[C@H](C(=O)N[C@@H](C)C(=O)N[C@@H](CC(C)C)C(=O)N[C@@H](CO)C(=O)N[C@@H](CO)C(=O)N[C@@H](Cc1ccccc1)C(=O)N[C@@H](CC(C)C)C(=O)N[C@@H](CCCCN)C(=O)N[C@@H](CCC(N)=O)C(=O)NCC(=O)O)[C@@H](C)O)C(C)C)[C@@H](C)CC [FLPLILPSIVTALSSFLKQG]
- MIC [31]: 11.7 µM (≈ 25.1 µg/mL)
- MIC [32]: ≥ 46.6 µM
- MIC [33]: 23.3 µM (≈ 50 µg/mL)
- MIC [34]: 23.3 µM (≈ 50 µg/mL)

Structure (SMILES): CC[C@H](C)[C@H](NC(=O)[C@@H](NC(=O)[C@H](CCCCN)NC(=O)[C@H](CCCCN)NC(=O)[C@H](CC(C)C)NC(=O)[C@@H](NC(=O)[C@H](CC(N)=O)NC(=O)[C@H](CC(C)C)NC(=O)CN)[C@@H](C)O)C(C)C)C(=O)N[C@@H](CCC(N)=O)C(=O)NCC(=O)N[C@@H](CC(C)C)C(=O)N[C@@H](Cc1cnc[nH]1)C(=O)N[C@@H](CCC(=O)O)C(=O)N[C@H](C(=O)N[C@H](C(=O)N[C@@H](CCCCN)C(=O)N[C@@H](CC(C)C)C(=O)N[C@H](C(=O)N[C@@H](CC(N)=O)C(=O)N[C@@H](CC(N)=O)C(=O)N[C@@H](Cc1cnc[nH]1)C(=O)N[C@@H](C)C(N)=O)C(C)C)[C@@H](C)CC)C(C)C [GLNTLKKVIQGLHEVIKLVNNHA]
- MIC [35]: 2 µM (≈ 5.08 µg/mL)
- MIC [22]: 6 µM (≈ 15.2 µg/mL)
- MIC [23]: 50 µM (≈ 127 µg/mL)
- MIC [36]: 6 µM (≈ 15.2 µg/mL)

Structure (SMILES): CC[C@H](C)[C@H](NC(=O)[C@H](CCSC)NC(C)=O)C(=O)N[C@@H](Cc1cnc[nH]1)C(=O)NCC(=O)N[C@@H](CC(C)C)C(=O)N[C@H](C(=O)N[C@H](C(=O)N[C@@H](CCCN=C(N)N)C(=O)N[C@@H](CCCN=C(N)N)C(N)=O)[C@@H](C)O)C(C)C [MIHGLVTRR]
- MIC [37]: ≥ 92.4 µM
- MIC [38]: ≥ 92.4 µM

Results, then the molecule that gave them:

- MIC [1]: 1.56 µM (≈ 2.65 µg/mL)
- MIC [2]: 0.78 µM (≈ 1.32 µg/mL)
- MIC [3]: 1.56 µM (≈ 2.65 µg/mL)
- MIC [4]: 3.13 µM (≈ 5.32 µg/mL)
- MIC [5]: 6.25 µM (≈ 10.6 µg/mL)
- MIC [6]: 25 µM (≈ 42.5 µg/mL)
- MIC [7]: 0.78 µM (≈ 1.32 µg/mL)
- MIC [8]: 3.12 µM (≈ 5.3 µg/mL)
- MIC [9]: 3.13 µM (≈ 5.32 µg/mL)
- MIC [10]: 3.13 µM (≈ 5.32 µg/mL)
- MIC [11]: 12.5 µM (≈ 21.2 µg/mL)
- MIC [12]: 1.56 µM (≈ 2.65 µg/mL)
Structure (SMILES): CC[C@H](C)[C@H](N)C(=O)N[C@@H](CCCCN)C(=O)N[C@@H](CCCCN)C(=O)N[C@@H](Cc1c[nH]c2ccccc12)C(=O)N[C@@H](Cc1c[nH]c2ccccc12)C(=O)N[C@@H](CO)C(=O)N[C@@H](CCCCN)C(=O)N[C@H](C(=O)N[C@@H](CCCCN)C(=O)N[C@@H](CCCCN)C(=O)N[C@@H](CC(C)C)C(=O)N[C@@H](CC(C)C)C(=O)N[C@@H](CCCCN)C(N)=O)[C@@H](C)CC [IKKWWSKIKKLLK]

- MIC [13]: ≥ 173 µM
- MIC [14]: ≥ 43.1 µM
- MIC [15]: ≥ 86.3 µM
- MIC [16]: ≥ 173 µM
- MIC [17]: ≥ 173 µM
- MIC [18]: ≥ 86.3 µM
- MIC [19]: ≥ 173 µM
Structure (SMILES): CC[C@H](C)[C@H](NC(=O)[C@H](CC(C)C)NC(=O)[C@H](CCC(=O)O)NC(=O)[C@H](CO)NC(=O)[C@H](CCCN=C(N)N)NC(=O)[C@@H](N)CO)C(=O)N[C@H](C(=O)N[C@@H](Cc1cnc[nH]1)C(=O)N[C@@H](CCC(N)=O)C(=O)N[C@@H](CCCN=C(N)N)C(=O)N[C@@H](CCCN=C(N)N)C(=O)N[C@@H](CS)C(N)=O)C(C)C [SRSELIVHQRRC]

- MIC [20]: 3.65 µM (≈ 8 µg/mL)
- MIC [21]: 1.82 µM (≈ 4 µg/mL)
Structure (SMILES): CC[C@H](C)[C@H](NC(=O)[C@H](CCCN=C(N)N)NC(=O)[C@H](CCCCN)NC(=O)[C@H](Cc1c[nH]c2ccccc12)NC(=O)[C@H](CCCN=C(N)N)NC(=O)[C@H](CCCCN)NC(=O)[C@H](Cc1c[nH]c2ccccc12)NC(=O)[C@@H](N)Cc1c[nH]c2ccccc12)C(=O)N[C@@H](CCCN=C(N)N)C(=O)N[C@@H](CCCN=C(N)N)C(=O)N[C@H](C(=O)N[C@@H](Cc1ccccc1)C(=O)N[C@@H](CCSC)C(=O)N[C@@H](CCSC)C(=O)N[C@H](C(=O)O)C(C)C)[C@@H](C)CC [WWKRWKRIRRIFMMV]

- MIC [22]: 26.5 µM (≈ 40 µg/mL)
- MIC [23]: 39.8 µM (≈ 60 µg/mL)
- MIC [24]: 16.6 µM (≈ 25 µg/mL)
- MIC [25]: 19.9 µM (≈ 30 µg/mL)
- MIC [26]: 26.5 µM (≈ 40 µg/mL)
Structure (SMILES): CSCC[C@H](NC(=O)[C@H](CCCCN)NC(=O)[C@H](CCCCN)NC(=O)[C@H](CC(N)=O)NC(=O)[C@H](CCCN=C(N)N)NC(=O)[C@H](CS)NC(=O)[C@H](CCCCN)NC(=O)[C@@H](N)CCCCN)C(=O)N[C@@H](CCC(=O)O)C(=O)N[C@H](C(=O)N[C@@H](CO)C(=O)N[C@@H](CCCN=C(N)N)C(N)=O)C(C)C [KKCRNKKMEVSR]
